Experimental data taken from publication PMC6859649 (Free radical biology & medicine, 2017).
Counter-ions that a name gives are not always drawn.

Molecular target: Myeloperoxidase (MPO) (Homo sapiens, UniProt P05164)
Experiment: taurine chloramine chlorination assay
Assay type: biochemical

Myeloperoxidase (MPO), sequence (P05164 165-273): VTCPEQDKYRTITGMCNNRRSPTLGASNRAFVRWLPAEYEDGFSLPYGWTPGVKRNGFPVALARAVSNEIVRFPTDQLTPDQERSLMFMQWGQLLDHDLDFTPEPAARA
Myeloperoxidase (MPO), sequence (P05164 279-745): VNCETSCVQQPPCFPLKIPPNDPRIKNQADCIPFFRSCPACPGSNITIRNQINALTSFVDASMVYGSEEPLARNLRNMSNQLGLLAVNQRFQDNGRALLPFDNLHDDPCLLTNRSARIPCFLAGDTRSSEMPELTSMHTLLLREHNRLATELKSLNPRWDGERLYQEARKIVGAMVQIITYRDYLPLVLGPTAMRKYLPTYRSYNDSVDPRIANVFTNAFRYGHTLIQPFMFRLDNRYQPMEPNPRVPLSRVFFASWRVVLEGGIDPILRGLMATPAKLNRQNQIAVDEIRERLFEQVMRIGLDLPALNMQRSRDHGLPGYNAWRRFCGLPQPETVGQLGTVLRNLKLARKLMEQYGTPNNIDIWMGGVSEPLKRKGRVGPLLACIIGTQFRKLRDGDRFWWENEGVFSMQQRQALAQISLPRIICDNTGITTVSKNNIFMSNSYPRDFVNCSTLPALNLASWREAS

- IC50: ~5 µM
SMILES: O=S(=O)(O)CCS [mesna, 2-mercaptoethanesulfonic acid sodium salt]
